The assay can be described thus: Inhibition of Tau P301L mutant-mediated cytotoxicity in human M17 cells by LDH assay. In kind it is cell-based.

The EC50 is the concentration needed to bring the measured effect to its halfway point. Regarding `O=C(NCCc1c[nH]c2ccc(Cl)cc12)c1cccc(Cc2ccccc2)c1`, the EC50 turned out to be 78 nM.

Regarding `O=C(NCCc1c[nH]c2ccc(F)cc12)c1ccc(Cn2ccnc2)cc1`, the half-maximal effective concentration (EC50) turned out to be 486 nM.

In turn, `O=C(NCCc1c[nH]c2ccc(Cl)cc12)c1cccc(Nc2ccccc2)c1` had an EC50 of 94 nM.

For the molecule `N#Cc1ccc(Cc2ccc(C(=O)NCCc3c[nH]c4ccc(Cl)cc34)cc2)cc1`, a half-maximal effect (EC50) was put at 16 nM.

In turn, `N#Cc1cccc(Cc2ccc(C(=O)NCCc3c[nH]c4ccc(Cl)cc34)cc2)c1` yielded a 50% effective concentration (EC50) of 14 nM.

`O=C(NCCc1c[nH]c2ccc(Cl)cc12)c1ccc(Cc2cccc(Cl)c2)cc1` registered an EC50 of 7 nM.

As for `O=C(NCCc1c[nH]c2ccc(Cl)cc12)c1ccc(Cc2cccc(F)c2)cc1`, the EC50 stood at 13 nM.

In the case of `COc1ccc(Cc2ccc(C(=O)NCCc3c[nH]c4ccc(Cl)cc34)cc2)cc1`, the EC50 turned out to be 147 nM.

In turn, `O=C(NCCc1c[nH]c2ccc(Cl)cc12)c1cccc(Cc2cncc(F)c2)c1` yielded an EC50 of 90 nM.

Source of the values: ChEMBL document CHEMBL2150879, “Novel indolethylbenzamides for the treatment of tauopathies: patent highlight” (ACS Med Chem Lett, 2012).
